Data on three compounds can be found in ChEMBL document CHEMBL6103645, “Modular Synthesis of Bioactive Selenoheterocycles for Efficient Cancer Therapy via Electrochemical Selenylation/Cyclization” (J Med Chem, 2025).

The structures appear in SMILES notation. pIC50: −log10 of the molar value. Calls of active or inactive are those of the source. The rule behind the calls is not given here.

As usually defined, the pIC50 is −log10 of the IC50, conventionally taken in molar units.

A short description of data set [1]: Antiproliferative activity against rat PA-III cells incubated for 24 hrs by MTT assay. Type of data set: functional, cell-based. (In general: Tetrazolium dyes change colour on reduction, which living cells bring about.)
Data set [2] has as its system NCI-H460. Nature of the data set: Anti-tumor activity against human NCI-H460 cells assessed as cell viability incubated for 48 hrs by CCK-8 assay. Type of data set: functional, cell-based. Conditions: NCI-H460, 48 h.
A further data set has as its system HT-29. Nature of the data set: Anti-tumor activity against human HT-29 cells assessed as cell viability incubated for 48 hrs by CCK-8 assay. Type of data set: functional, cell-based.
The subject of a further data set is MCF7. Nature of the data set: Anti-tumor activity against human MCF7 cells assessed as cell viability incubated for 48 hrs by CCK-8 assay. It is filed as functional, cell-based.
A further data set has as its system HeLa. Nature of the data set: Anti-tumor activity against human HeLa cells assessed as cell viability incubated for 48 hrs by CCK-8 assay. Type of data set: functional, cell-based.
Data set [3] concerns NCI-H460. Nature of the data set: Inhibition of colony formation in human NCI-H460 cells assessed as reduction in colony formation rate upto 12.5 uM incubated for 14 days by crystal violet staining based analysis. It is filed as functional, cell-based. As to conditions: time 14.0 day.
For data set [4], the system named is NCI-H460. Nature of the data set: Anti-migratory activity against human NCI-H460 cells assessed as inhibition of cell migration at 500 nM measured for 48 hrs by wound healing assay. Type of data set: functional, cell-based.
Data set [5] deals with NCI-H460. Nature of the data set: Inhibition of cell invasion in human NCI-H460 cells assessed as decrease in number of invading cells at 500 nM incubated for 48 hrs by transwell assay. Type of data set: functional, cell-based.
In data set [6] the test system is NCI-H460. Nature of the data set: Inhibition of epithelial mesenchymal transition in human NCI-H460 cells assessed as decrease in N-cadherin protein expression by Western blotting analysis. It is filed as functional, cell-based.
The test system of data set [7] is NCI-H460. Nature of the data set: Inhibition of epithelial mesenchymal transition in human NCI-H460 cells assessed as increase in E-cadherin protein expression by Western blotting analysis. It is filed as functional, cell-based. A general note: Immunoblotting shows a protein as a band on a membrane.
The test system of data set [8] is NCI-H460. Nature of the data set: Induction of apoptosis in human NCI-H460 cells assessed as apoptosis rate at 500 nM incubated for 24 hrs by annexin V-FITC/PI staining based flow cytometry analysis relative to control. It is filed as functional. (In general: Flow cytometry measures light scatter and fluorescence of single cells or particles in a stream.)
The subject of data set [9] is NCI-H460. Nature of the data set: Induction of apoptosis in human NCI-H460 cells assessed as increase in BAX level at 500 nM incubated for 24 hrs by Western blot analysis. Type of data set: functional, cell-based.
The test system of data set [10] is NCI-H460. Nature of the data set: Induction of apoptosis in human NCI-H460 cells assessed as increase in caspase-3 level at 500 nM incubated for 24 hrs by Western blot analysis. Type of data set: functional, cell-based.
Data set [11] relates to NCI-H460. Nature of the data set: Induction of apoptosis in human NCI-H460 cells assessed as downregulation of Bcl2 expression at 500 nM incubated for 24 hrs by Western blot analysis. Type of data set: functional, cell-based.
In data set [12] the test system is NCI-H460. Nature of the data set: Induction of DNA damage in human NCI-H460 cells assessed as increase in gammaH2AX positive cells by DAPI staining based confocal laser scanning microscopic analysis. Type of data set: functional, cell-based.
The test system of data set [13] is NCI-H460. Nature of the data set: Induction of DNA damage in human NCI-H460 cells assessed as increase in gammaH2AX positive cells by immunofluorescence analysis. Type of data set: functional, cell-based.
Data set [14] has as its system NCI-H460. Nature of the data set: Upregulation of gamma-H2AX expression in human NCI-H460 cells by Western blot analysis. Type of data set: functional, cell-based.
Data set [15] in a line: Hemolytic activity in BALB/c mouse Red blood cells assessed as effect on morphological structure at 10 to 100 uM incubated for 2 hrs. As to conditions: erythrocyte, dose 10-100 µM. It is filed as toxicity, cell-based.
Data set [16] in a line: Hemolytic activity in BALB/c mouse Red blood cells assessed as hemolysis at 10 to 100 uM incubated for 2 hrs. Type of data set: toxicity, cell-based, Erythrocyte. As to conditions: dose 10-100 µM, read-out: Activity.
A further data set deals with PC-3M. Nature of the data set: Antiproliferative activity against human PC-3M cells incubated for 24 hrs by MTT assay. Type of data set: functional, cell-based.

In data set [1], `N#C[Se]Cc1cc(-c2ccccc2)n(-c2ccc(S(N)(=O)=O)cc2)n1` showed a pIC50 of 5.30.

Take `COc1ccc([Se]c2c(-c3ccccc3)ncc3ccc(OC)cc23)cc1`: the pIC50 in the data set on NCI-H460 [2] was 5.23. Besides, the result in the data set on HT-29, with MCF7 and in the data set with HeLa was inactive. The inhibition result in the data set with NCI-H460 [3], in the data set on NCI-H460 [5] and with NCI-H460 [7] was “Active” each time. Besides, the outcome in the data set with NCI-H460 [4], with NCI-H460 [9], in the data set with NCI-H460 [10], in the data set with NCI-H460 [11], in the data set with NCI-H460 [12] and with NCI-H460 [13] was Active. For the same compound, the outcome in the data set on NCI-H460 [14] was Active. Moreover, the “N-cadherin expression decrease (qualitative activity)” value with NCI-H460 [6] was “Active”. In addition, the Activity in the data set on NCI-H460 [8] is 31.5%; in [15], “Non-toxic”. Further, the hemolysis at 2 h, 100 µM in data set [16] was under 1%.

`Cc1ccc(-c2cc(C(F)(F)F)nn2-c2ccc(S(N)(=O)=O)cc2)cc1` [CELECOXIB]: the pIC50 (in data set [1]; in the data set with PC-3M) was under 4.70 throughout.
